The conditions of the series: Liquid.

Numbers after ± are expanded uncertainties.

With `CCC` [propane], the “vapor or sublimation pressure” value came to 476 ± 6 kPa (273.15 K); 632 ± 8 kPa (283.15 K); 833 ± 10 kPa (293.15 K); 1079 ± 13 kPa (303.15 K); 1366 ± 17 kPa (313.15 K); 1709 ± 21 kPa (323.15 K).

Consider `FC(C(F)(F)F)C(F)(F)F` [1,1,1,2,3,3,3-heptafluoropropane], for which the “vapor or sublimation pressure” value is 195 ± 3 kPa (273.15 K); 280 ± 4 kPa (283.15 K); 389 ± 5 kPa (293.15 K); 527 ± 7 kPa (303.15 K); 704 ± 9 kPa (313.15 K); 920 ± 11 kPa (323.15 K).

The values above are taken from the NIST ThermoML archive (doi:10.1021/je700271n).
